# Like-named read-outs stand apart in the source and are kept apart here.
# Legend:
# [1] = target: KDR (h) (Homo sapiens, UniProt P35968); assay: KDR (VEGFR2) (enzymatic assay), TR-FRET; type: biochemical; details: read-out: VEGFR 2 (KDR) pIC50 (converted)
# Procedure, shortened: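 Read-out is TR-FRET (ex 340 nm, em 620 and 655 nm) in RFU, after an EDTA stop carrying Eu-labelled anti-phosphotyrosine and SA-XL-665 (60 min, RT). The preceding kinase reaction ran 120 min at RT with 150 ng/ml enzyme, 500 nM Btn-Flt3 and 3 μM ATP.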
# [2] = target: Ba/F3-FGFR4-transfected cells (Homo sapiens, UniProt P22455); assay: Ba/F3-FGFR4 cellular proliferation assay, Alamar Blue; type: cell-based
# Procedure, shortened: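 20000 cells/well, RPMI-1640 (phenol red free) + 10% FBS + 2 mM L-Gln; cpd from DMSO; 24 h, 37° C, 5% CO2; Alamar Blue 4 h; RFU ex 540/em 590 nm.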
# [3] = target: FGFR3 (h) (Homo sapiens, UniProt P22607); assay: FGFR3 (enzymatic assay), TR-FRET; type: biochemical; details: read-out: FGFR 3 pIC50 (converted)
# Source text: Time-Resolved Fluorescence Resonance Energy Transfer (TR-FRET) signal (ex340 nm.
# [4] = average values if tested multiple times
# Chain of Ba/F3-FGFR4-transfected cells (P22455 whole entry, change not shown): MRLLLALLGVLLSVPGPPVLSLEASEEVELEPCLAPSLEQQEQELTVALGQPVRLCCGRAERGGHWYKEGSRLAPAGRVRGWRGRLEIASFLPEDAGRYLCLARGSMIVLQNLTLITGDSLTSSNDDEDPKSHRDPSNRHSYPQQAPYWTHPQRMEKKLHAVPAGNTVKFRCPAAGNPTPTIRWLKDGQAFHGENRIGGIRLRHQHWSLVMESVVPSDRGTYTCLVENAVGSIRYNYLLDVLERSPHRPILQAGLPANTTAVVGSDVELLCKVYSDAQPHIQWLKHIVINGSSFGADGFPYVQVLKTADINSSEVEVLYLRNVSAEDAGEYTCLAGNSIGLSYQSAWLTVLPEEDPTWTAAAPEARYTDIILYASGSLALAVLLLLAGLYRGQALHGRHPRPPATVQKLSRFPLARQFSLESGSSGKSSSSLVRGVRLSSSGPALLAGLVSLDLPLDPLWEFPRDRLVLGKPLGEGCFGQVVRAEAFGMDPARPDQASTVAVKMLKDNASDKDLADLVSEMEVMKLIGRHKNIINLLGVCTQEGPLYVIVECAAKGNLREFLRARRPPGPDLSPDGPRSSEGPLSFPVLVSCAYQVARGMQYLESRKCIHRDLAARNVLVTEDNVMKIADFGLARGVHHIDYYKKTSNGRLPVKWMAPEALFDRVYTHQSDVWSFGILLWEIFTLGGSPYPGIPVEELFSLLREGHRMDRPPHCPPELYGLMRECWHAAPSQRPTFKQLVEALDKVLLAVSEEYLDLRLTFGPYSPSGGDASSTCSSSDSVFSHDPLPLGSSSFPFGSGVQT
# Chain of KDR (h) (P35968 20-1356): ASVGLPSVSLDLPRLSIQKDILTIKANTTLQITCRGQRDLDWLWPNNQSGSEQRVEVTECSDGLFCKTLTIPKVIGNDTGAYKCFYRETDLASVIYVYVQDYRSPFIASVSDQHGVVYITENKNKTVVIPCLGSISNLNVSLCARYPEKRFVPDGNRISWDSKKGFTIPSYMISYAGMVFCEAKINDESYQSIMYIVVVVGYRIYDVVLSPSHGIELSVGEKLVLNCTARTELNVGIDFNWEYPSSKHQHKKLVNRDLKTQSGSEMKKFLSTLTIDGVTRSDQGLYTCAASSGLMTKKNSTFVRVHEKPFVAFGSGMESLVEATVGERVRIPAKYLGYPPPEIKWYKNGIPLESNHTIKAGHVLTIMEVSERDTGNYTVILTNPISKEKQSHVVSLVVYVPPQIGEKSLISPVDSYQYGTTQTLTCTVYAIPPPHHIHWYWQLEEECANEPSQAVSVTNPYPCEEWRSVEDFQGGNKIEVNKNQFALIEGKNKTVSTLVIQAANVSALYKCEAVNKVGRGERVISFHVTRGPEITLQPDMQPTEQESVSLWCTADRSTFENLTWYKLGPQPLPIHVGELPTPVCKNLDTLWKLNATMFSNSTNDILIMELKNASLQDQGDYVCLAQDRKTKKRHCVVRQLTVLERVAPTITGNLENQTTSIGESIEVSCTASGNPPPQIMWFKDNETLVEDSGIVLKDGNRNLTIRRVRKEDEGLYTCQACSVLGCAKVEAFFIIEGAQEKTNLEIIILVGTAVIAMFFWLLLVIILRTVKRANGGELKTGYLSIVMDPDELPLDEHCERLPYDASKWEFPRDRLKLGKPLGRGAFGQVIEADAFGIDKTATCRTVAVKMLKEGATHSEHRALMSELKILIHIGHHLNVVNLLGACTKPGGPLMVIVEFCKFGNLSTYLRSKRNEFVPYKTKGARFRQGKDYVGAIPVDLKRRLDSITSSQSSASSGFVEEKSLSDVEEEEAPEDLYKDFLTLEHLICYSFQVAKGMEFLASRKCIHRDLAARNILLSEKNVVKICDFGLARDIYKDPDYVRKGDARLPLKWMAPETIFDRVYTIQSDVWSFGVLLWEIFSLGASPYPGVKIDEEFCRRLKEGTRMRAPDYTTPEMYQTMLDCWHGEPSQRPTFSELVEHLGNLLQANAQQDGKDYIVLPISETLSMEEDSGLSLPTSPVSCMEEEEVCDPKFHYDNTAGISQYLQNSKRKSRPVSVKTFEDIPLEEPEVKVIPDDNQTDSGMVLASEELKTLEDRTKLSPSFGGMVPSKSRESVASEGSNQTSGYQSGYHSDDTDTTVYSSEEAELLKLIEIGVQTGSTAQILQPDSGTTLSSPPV
# Chain of FGFR3 (h) (P22607 23-806): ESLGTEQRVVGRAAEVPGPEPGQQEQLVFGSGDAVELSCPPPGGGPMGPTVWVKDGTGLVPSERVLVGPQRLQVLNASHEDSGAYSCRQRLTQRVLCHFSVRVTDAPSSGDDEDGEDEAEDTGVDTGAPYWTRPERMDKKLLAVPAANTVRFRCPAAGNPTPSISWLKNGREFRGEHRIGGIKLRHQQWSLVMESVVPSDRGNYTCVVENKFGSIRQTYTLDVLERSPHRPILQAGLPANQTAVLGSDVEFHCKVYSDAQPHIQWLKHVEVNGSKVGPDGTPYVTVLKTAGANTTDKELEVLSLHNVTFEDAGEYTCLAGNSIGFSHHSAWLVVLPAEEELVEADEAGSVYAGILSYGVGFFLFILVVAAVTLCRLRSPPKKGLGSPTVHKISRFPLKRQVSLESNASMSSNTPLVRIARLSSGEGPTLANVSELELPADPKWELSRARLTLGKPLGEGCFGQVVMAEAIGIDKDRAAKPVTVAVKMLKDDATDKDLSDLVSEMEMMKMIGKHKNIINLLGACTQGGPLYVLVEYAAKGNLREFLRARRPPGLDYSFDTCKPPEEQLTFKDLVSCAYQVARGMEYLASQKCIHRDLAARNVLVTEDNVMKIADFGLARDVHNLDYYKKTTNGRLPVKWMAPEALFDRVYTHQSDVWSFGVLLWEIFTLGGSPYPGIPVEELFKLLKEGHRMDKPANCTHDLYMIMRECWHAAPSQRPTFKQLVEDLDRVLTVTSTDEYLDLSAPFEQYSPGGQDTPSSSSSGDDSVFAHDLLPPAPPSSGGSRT
SMILES,"IC50 [1, 4] [nM]",BAF3-FGFR4 pIC50 [2],"IC50 [3, 4] [nM]",melting point [°C],IC50 [1] [nM],IC50 [3] [nM]
"COc1cc(OC)cc(N(CC(O)C(F)(F)F)c2ccc3ncc(-c4cnn(C)c4)nc3n2)c1 (single isomer, unassigned) [Compound 33]",75.9,~7.03,0.708,208,–,–
"COCC(O)CN(c1ccc2ncc(-c3cnn(C)c3)nc2n1)c1cc(OC)cc(OC)c1F (single isomer, unassigned) [Compound 58]",34.7,7.09,1.26,94 to 95,–,–
"COc1cc(OC)c(F)c(N(c2ccc3ncc(-c4cnn(C)c4)nc3n2)C(CO)COC(C)C)c1 (single isomer, unassigned) [Compound 76]",> 1000,5.20,105,137 to 138,–,–
"COc1cc(/N=c2\ccc3ncc(-c4cnn(C)c4)nc3n2CC(O)COC(C)C)c(F)c(OC)c1 (single isomer, unassigned) [Compound 77]",28.8,6.46,1.78,96 to 97,–,–
"COc1cc(OC)c(Cl)c(/N=c2\ccc3ncc(-c4cnn(C)c4)nc3n2CC2CCC(=O)N2)c1Cl (single isomer, unassigned) [Compound 87]",117,5.89,4.57,160,–,–
"COc1ccc(Cl)c(/N=c2\ccc3ncc(-c4cnn(C)c4)nc3n2CC2CCC(=O)N2)c1Cl (single isomer, unassigned) [Compound 89]",339,<5,97.7,183,–,–
"COc1cc(OC)c(F)c(N(CC2COC(=O)N2)c2ccc3ncc(-c4cnn(C)c4)nc3n2)c1 (single isomer, unassigned) [Compound 111]",30.9,7.27,1,202,–,–
CNCCN(c1ccc2ncc(-c3cnn(C)c3)nc2n1)c1c(F)c(OC)cc(OC)c1F [Compound 3],21.9,7.37,2.57,159,–,–
CNCCn1/c(=N/c2c(Cl)ccc(OC)c2Cl)ccc2ncc(-c3cnn(C)c3)nc21 [Compound 84],> 1000,<5,363,–,–,–
COc1cc(OC)c(F)c(N(Cc2nc[nH]n2)c2ccc3ncc(-c4cnn(C)c4)nc3n2)c1F [Compound 85],6.76,7.66,2.14,–,–,–
COc1cc(OC)c(F)c(N(Cc2nc[nH]n2)c2ccc3ncc(-c4cnn(C)c4)nc3n2)c1 [Compound 86],7.59,7.33,1,–,–,–
COc1ccc(Cl)c(/N=c2\ccc3ncc(-c4cnn(C)c4)nc3n2CC2CCC(=O)N2)c1Cl (centres unmarked) [Compound 92],309,<5,46.8,–,–,–
COc1cc(OC)c(Cl)c(N(Cc2ncc[nH]2)c2ccc3ncc(-c4cnn(C)c4)nc3n2)c1Cl [Compound 98],16.6,6.56,2.69,–,–,–
COc1cc(OC)c(F)c(N(Cc2ncc[nH]2)c2ccc3ncc(-c4cnn(Cc5ncc[nH]5)c4)nc3n2)c1 [Compound 100],8.13,6.99,1.29,–,–,–
COc1cc(OC)c(F)c(N(Cc2nc3c([nH]2)CCNC3)c2ccc3ncc(-c4cnn(C)c4)nc3n2)c1 [Compound 104],26.3,5.74,3.09,–,–,–
CNCCN(c1ccc2ncc(-c3cn[nH]c3)nc2n1)c1c(F)c(OC)cc(OC)c1F [Compound 106],25.1,~6.65,1.48,–,–,–
COc1cc(OC)c(F)c(N(Cc2nc[nH]c2C)c2ccc3ncc(-c4cnn(C)c4)nc3n2)c1 [Compound 109],20,~7.05,1.45,–,–,–
COc1cc(OC)c(F)c(N(Cc2ccnn2C)c2ccc3ncc(-c4cnn(C)c4)nc3n2)c1 [Compound 113],51.3,6.63,1.38,–,–,–

SMILES,"IC50 [1, 4] [nM]",BAF3-FGFR4 pIC50 [2],"IC50 [3, 4] [nM]",melting point [°C],IC50 [1] [nM],IC50 [3] [nM]
COc1cc(/N=c2\ccc3ncc(-c4cnn(C)c4)nc3n2Cc2ccnn2C)c(F)c(OC)c1 [Compound 114],4.9,7.14,0.724,–,–,–
COc1cc(/N=c2\ccc3ncc(-c4cnn(C)c4)nc3n2Cc2cc[nH]n2)c(F)c(OC)c1 [Compound 115],5.89,~7.59,0.851,–,–,–
COc1cc(OC)c(F)c(N(Cc2cc[nH]n2)c2ccc3ncc(-c4cnn(C)c4)nc3n2)c1 [Compound 118],6.46,~7.56,0.589,–,–,–
COc1cc(/N=c2\ccc3ncc(-c4cnn(C)c4)nc3n2CCCN2CCCC2=O)c(F)c(OC)c1 [Compound 119],–,7.28,–,–,6.17,0.708
COc1cc(OC)c(F)c(N(CCCN2CCCC2=O)c2ccc3ncc(-c4cnn(C)c4)nc3n2)c1 [Compound 120],–,6.84,–,–,19.1,1.86
CNCCN(c1ccc2ncc(-c3cnn(C)c3)nc2n1)c1c(F)c(O)cc(OC)c1F [Compound 122],–,5.67,–,–,50.1,2.51
COc1cc(/N=c2\ccc3ncc(-c4cnn(C)c4)nc3n2CC2COC(=O)N2)c(F)c(OC)c1 (centres unmarked) [Compound 123],–,6.62,–,–,21.9,0.741
COc1cc(OC)c(F)c(N(CC2COC(=O)N2)c2ccc3ncc(-c4cnn(C)c4)nc3n2)c1 (centres unmarked) [Compound 124],–,~6.64,–,–,60.3,1.55
COc1cc(OC)c(F)c(N(Cc2cn[nH]c2)c2ccc3ncc(-c4cnn(C)c4)nc3n2)c1 [Compound 125],–,~7.15,–,–,8.71,0.724
COc1cc(OC)c(F)c(N(Cc2ccn(C)n2)c2ccc3ncc(-c4cnn(C)c4)nc3n2)c1 [Compound 128],–,7.12,–,–,7.94,1.05
COc1cc(OC)c(F)c(N(Cc2nccn2C)c2ccc3ncc(-c4cnn(C)c4)nc3n2)c1 [Compound 131],–,6.62,–,–,19.1,2.95
COc1cc(OC)c(F)c(N(Cc2nncn2C)c2ccc3ncc(-c4cnn(C)c4)nc3n2)c1 [Compound 132],–,~6.13,–,–,42.7,4.27
COc1cc(OC)cc(N(CCCN2CCCC2=O)c2ccc3ncc(-c4cnn(C)c4)nc3n2)c1 [Compound 134],–,5.99,–,–,35.5,3.8
COc1cc(OC)c(F)c(N(Cc2nc(C)c[nH]2)c2ccc3ncc(-c4cnn(C)c4)nc3n2)c1 [Compound 135],–,8.05,–,–,8.71,1.48
COc1cc(OC)c(F)c(N(Cc2c[nH]c(C)n2)c2ccc3ncc(-c4cnn(C)c4)nc3n2)c1 [Compound 137],–,7.23,–,–,11.2,1.58
COc1cc(OC)c(F)c(N(CC2CCC(=O)N2)c2ccc3ncc(-c4cnn(C)c4)nc3n2)c1F (centres unmarked) [Compound 192],13.8,7.01,1.55,–,–,–
COc1cc(OC)c(F)c(/N=c2\ccc3ncc(-c4cnn(C)c4)nc3n2CC2CCC(=O)N2)c1F (centres unmarked) [Compound 193],7.24,7.00,0.417,–,–,–

# Reference: patent publication US9309242B2, “Substituted pyrido[2,3-b]pyrazines as FGFR kinase inhibitors” (priority 2011, dated 2016)
